Measured values: patent US20100234454A1 (priority 2006, published 2010)

Legend:
rats [1] = experiment: Flinches in rats after intraplantar injection of capsaicin; format: in vivo, rat
rats [2] = conditions: rat, in vivo

Structure (SMILES) | number of flinches (mean) after intraplantar capsaicin following BCTC conditioning (rats [1]; 40 mg/kg BCTC s.c. one hour before capsaicin, 4 minutes, p<0.05, n=6) | reduction of induced pain effect (rats [2]) | dose needed to decrease half of the number of flinches induced by the venom (rats [2]; sc) | dose of maximal analgesic effect (rats [2]; sc) | number of flinches (mean) after intraplantar capsaicin alone (rats [1]; 10 μg capsaicin intraplantar, 4 minutes observation, n=6)
CC(C)(C)c1ccc(NC(=O)N2CCN(c3ncccc3Cl)CC2)cc1 [BCTC, N-(4-Tertiarybutylphenyl)-4-(3-cholorphyridin-2-yl)tetrahydropyrazine-1(2H)-carbox-amide] | 4.2 | 79% | 10 to 40 mg/kg | 40 mg/kg | –
COc1cc(CNC(=O)CCCC/C=C/C(C)C)ccc1O [capsaicin] | – | – | – | – | 76.0
